# Measured values as given in patent US6630505B2, “Aminopyrrolidine sulfonamides as serine protease inhibitors” (Ortho-McNeil Pharmaceutical, Inc., priority 2001, dated 2003).
# Target: T1, human Factor Xa (Homo sapiens, UniProt P00742)
# T1 construct: commercial human Factor Xa (American Diagnostica); purchased American Diagnostica
# Experiment: Factor Xa inhibition, enzyme-catalyzed hydrolysis assay (chromogenic substrate)
# Assay type: biochemical
# Conditions: 5.7 nM Factor Xa, 30-700 μM substrate, pH 8.4, 37° C.
# Description: Enzyme-catalyzed hydrolysis rates were measured spectrophotometrically using commercial human Factor Xa (American Diagnostica), the chromogenic substrate (Meo—CO—D—CHG—Gly—Arg—pNa (American Diagnostica); in aqueous buffer (50 mM Trisma Base, 0.1% Tween 80, pH 8.4), and a microplate reader (Molecular Devices). Changes in absorbance at 405 nm were monitored using the software program Softmax (Molecular Devices), upon addition of enzyme, with and without inhibitor present at 37° C. for 30 minutes. The IC50 values were determined by fixing the enzyme and substrate concentrations (5.7 nM Factor Xa, 500 μM Factor Xa substrate) and varying the inhibitor concentration. Percent inhibition was calculated by comparing the initial reaction slopes of the without inhibitor samples to those with inhibitor. Inhibition constants (Ki) were determined by fixing the enzyme concentrations (5.7 nM Factor Xa) and inhibitor concentration and varying the substrate concentrations (30-700 μM Factor Xa substrate. Michaelis-Menton kinetics were applied to the initial reaction slopes using the program Kcat (Bio Metallics Inc.).
# T1 sequence (P00742 235-488 limits assumed): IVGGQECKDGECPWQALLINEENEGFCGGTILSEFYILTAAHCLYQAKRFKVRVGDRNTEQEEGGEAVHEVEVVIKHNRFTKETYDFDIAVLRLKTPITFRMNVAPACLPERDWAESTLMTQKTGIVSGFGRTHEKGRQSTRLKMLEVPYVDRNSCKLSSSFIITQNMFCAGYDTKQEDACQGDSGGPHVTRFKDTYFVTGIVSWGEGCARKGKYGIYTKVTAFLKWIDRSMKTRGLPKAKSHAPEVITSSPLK
# T1 sequence (P00742 41-179 partner limits assumed): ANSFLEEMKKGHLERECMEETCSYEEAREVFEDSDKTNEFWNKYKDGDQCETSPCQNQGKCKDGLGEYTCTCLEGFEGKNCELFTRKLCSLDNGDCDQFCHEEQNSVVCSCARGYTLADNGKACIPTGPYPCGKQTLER
row,Compound,Ki [nM]
1,"NC(N)=Nc1ccc(C(=O)N2CCC(N(Cc3ccc(OCc4ccccc4)cc3)S(=O)(=O)/C=C/c3ccc(Cl)cc3)C2)cc1 (stereo not shown) [Compound 17, 2-(4-chlorophenyl)-N-[1-[4-[(diaminomethylene)amino]benzoyl]-3-pyrrolidinyl]-N-[[4-(phenylmethoxy)phenyl]methyl]-(E)-ethenesulfonamide]",4400
2,"NC(N)=Nc1ccc(C(=O)N(Cc2ccccc2)C2CCN(S(=O)(=O)/C=C/c3ccc(Cl)cc3)C2)cc1 (stereo not shown) [Compound 1, N-[1-[[(E)-2-(4-chlorophenyl)ethenyl]sulfonyl]-3-pyrrolidinyl]-4-[(diaminomethylene)amino]-N-(phenylmethyl)-benzamide]",1600
3,"COc1ccc2ccc(S(=O)(=O)N(Cc3ccccc3)C3CCN(C(=O)c4ccc(N=C(N)N)cc4)C3)cc2c1 (stereo not shown) [Compound 23, N-[1-[4-[(diaminomethylene)amino]benzoyl]-3-pyrrolidinyl]-7-methoxy-N-(phenylmethyl)-2-naphthalenesulfonamide]",21000
4,"COC(=O)COc1cccc(CN(C(=O)c2ccc(N=C(N)N)cc2)C2CCN(S(=O)(=O)/C=C/c3ccc(Cl)cc3)C2)c1 (stereo not shown) [Compound 8, [3-[[[1-[[(E)-2-(4-chlorophenyl)ethenyl]sulfonyl]-3-pyrrolidinyl][4-[(diaminomethylene)amino]benzoyl]amino]methyl]phenoxy]-acetic acid methyl ester]",1100
5,"COC(=O)c1ccc(CN(C2CCN(C(=O)c3ccc(N=C(N)N)cc3)C2)S(=O)(=O)/C=C/c2ccc(Cl)cc2)cc1 (stereo not shown) [Compound 22, 4-[[[[(E)-2-(4-chlorophenyl)ethenyl]sulfonyl][1-[4-[(diaminomethylene)amino]benzoyl]-3-pyrrolidinyl]amino]methyl]-benzoic acid methyl ester]",7100
6,"COC(=O)c1cccc(CN(C(=O)c2ccc(N=C(N)N)cc2)C2CCN(S(=O)(=O)/C=C/c3ccc(Cl)cc3)C2)c1 (stereo not shown) [Compound 4, 3-[[[1-[[(E)-2-(4-chlorophenyl)ethenyl]sulfonyl]-3-pyrrolidinyl][4-[(diaminomethylene)amino]benzoyl]amino]methyl]-benzoic acid methyl ester]",7700
7,"NC(N)=Nc1ccc(C(=O)N(Cc2cccc(C(=O)O)c2)C2CCN(S(=O)(=O)/C=C/c3ccc(Cl)cc3)C2)cc1 (stereo not shown) [Compound 6, 3-[[[1-[[(E)-2-(4-chlorophenyl)ethenyl]sulfonyl]-3-pyrrolidinyl][4-[(diaminomethylene)amino]benzoyl]amino]methyl]-benzoic acid]",600

# The next lines start with the values.
row,Ki [nM],Compound
1,600,"NC(=O)c1cccc(CN(C(=O)c2ccc(N=C(N)N)cc2)C2CCN(S(=O)(=O)/C=C/c3ccc(Cl)cc3)C2)c1 (stereo not shown) [Compound 15, 3-[[[1-[[(E)-2-(4-chlorophenyl)ethenyl]sulfonyl]-3-pyrrolidinyl][4-[(diaminomethylene)amino]benzoyl]amino]methyl]-benzamide]"
2,600,"NC(N)=Nc1ccc(C(=O)N(Cc2cccc(OCC(=O)O)c2)C2CCN(S(=O)(=O)/C=C/c3ccc(Cl)cc3)C2)cc1 (stereo not shown) [Compound 11, [3-[[[1-[[(E)-2-(4-chlorophenyl)ethenyl]sulfonyl]-3-pyrrolidinyl][4-[(diaminomethylene)amino]benzoyl]amino]methyl]phenoxy]-acetic acid]"
3,400,"NC(N)=Nc1ccc(C(=O)N(Cc2ccc(C(=O)NCC(=O)O)cc2)C2CCN(S(=O)(=O)/C=C/c3ccc(Cl)cc3)C2)cc1 (stereo not shown) [Compound 12, [[4-[[[1-[[(E)-2-(4-chlorophenyl)ethenyl]sulfonyl]-3-pyrrolidinyl][4-[(diaminomethylene)amino]benzoyl]amino]methyl]benzoyl]-amino]-acetic acid]"
4,400,"COC(=O)c1ccc(CN(C(=O)c2ccc(N=C(N)N)cc2)C2CCN(S(=O)(=O)/C=C/c3ccc(Cl)cc3)C2)cc1 (stereo not shown) [Compound 3, 4-[[[1-[[(E)-2-(4-chlorophenyl)ethenyl]sulfonyl]-3-pyrrolidinyl][4-[(diaminomethylene)amino]benzoyl]amino]methyl]-benzoic acid methyl ester]"
5,300,"NC(N)=Nc1ccc(C(=O)N(Cc2ccc(O)cc2)C2CCN(S(=O)(=O)/C=C/c3ccc(Cl)cc3)C2)cc1 (stereo not shown) [Compound 2, N-[1-[[(E)-2-(4-chlorophenyl)ethenyl]sulfonyl]-3-pyrrolidinyl]-4-[(diaminomethylene)amino]-N-[(4-hydroxyphenyl)methyl]-benzamide]"
6,300,"NC(=O)c1ccc(CN(C(=O)c2ccc(N=C(N)N)cc2)C2CCN(S(=O)(=O)/C=C/c3ccc(Cl)cc3)C2)cc1 (stereo not shown) [Compound 9, N-[[4-(aminocarbonyl)phenyl]methyl]-N-[1-[[(E)-2-(4-chlorophenyl)ethenyl]sulfonyl]-3-pyrrolidinyl]-4-[(diaminomethylene)amino]-benzamide]"
7,300,"NC(N)=Nc1ccc(C(=O)N(Cc2cccc(C(=O)NCC(=O)O)c2)C2CCN(S(=O)(=O)/C=C/c3ccc(Cl)cc3)C2)cc1 (stereo not shown) [Compound 14, [[3-[[[1-[[(E)-2-(4-chlorophenyl)ethenyl]sulfonyl]-3-pyrrolidinyl][4-[(diaminomethylene)amino]benzoyl]amino]methyl]benzoyl]amino]-acetic acid]"
8,200,"NC(N)=Nc1ccc(C(=O)N(Cc2ccc(C(=O)O)cc2)C2CCN(S(=O)(=O)/C=C/c3ccc(Cl)cc3)C2)cc1 (stereo not shown) [Compound 5, 4-[[[1-[[(E)-2-(4-chlorophenyl)ethenyl]sulfonyl]-3-pyrrolidinyl][4-[(diaminomethylene)amino]benzoyl]amino]methyl]-benzoic acid]"
9,200,"COC(=O)CNC(=O)c1cccc(CN(C(=O)c2ccc(N=C(N)N)cc2)C2CCN(S(=O)(=O)/C=C/c3ccc(Cl)cc3)C2)c1 (stereo not shown) [Compound 13, [[3-[[[1-[[(E)-2-(4-chlorophenyl)ethenyl]sulfonyl]-3-pyrrolidinyl][4-[(diaminomethylene)amino]benzoyl]amino]methyl]benzoyl]amino]-acetic acid methyl ester]"
10,200,"COC(=O)CNC(=O)c1ccc(CN(C(=O)c2ccc(N=C(N)N)cc2)C2CCN(S(=O)(=O)/C=C/c3ccc(Cl)cc3)C2)cc1 (stereo not shown) [Compound 10, [[4-[[[1-[[(E)-2-(4-chlorophenyl)ethenyl]sulfonyl]-3-pyrrolidinyl][4-[(diaminomethylene)amino]benzoyl]amino]methyl]benzoyl]amino]-acetic acid methyl ester]"
11,100,4-[(aminoiminomethyl)amino]-N-(2-benzofuranylmethyl)-N-[1-[[(E)-2-(4-chlorophenyl)ethenyl]sulfonyl]-3-pyrrolidinyl]-benzamide [Compound 27]

# Target: T2, human Lung Tryptase
# T2 construct: 1.0 nM human Lung Tryptase
# Experiment: Tryptase inhibition, chromogenic peptide substrate hydrolysis assay
# Assay type: biochemical
# Conditions: 1.0 nM tryptase, 500 μM N-p-Tosyl-GLY-PRO-LYS-pNA, 37° C.
# Description: The rate of increase in absorbance at 405 nm due to hydrolysis of synthetic chromogenic peptide substrates ([S]: 500 μM N-p-Tosyl-GLY-PRO-LYS-pNA; Sigma T-6140) is measured in the presence and absence of inhibitors (I) with a microplate reader at 37° C. The enzyme reaction is started by the addition of enzyme ([E]: 1.0 nM human Lung Tryptase; Cortex Biochem CP3033). Data is collected over a period of 30 min. and the initial rate of substrate hydrolysis (Vo (mOD/min)) is calculated. Inhibition is calculated by comparing to wells […] (vehicle) and IC50s are determined using a four parameters fit logistics model.
row,IC50 [nM],Compound
1,600,"NC(N)=Nc1ccc(C(=O)NC2CCN(S(=O)(=O)/C=C/c3ccc(Cl)cc3)C2)cc1 (stereo not shown) [Compound 26, N-[1-[[(E)-2-(4-chlorophenyl)ethenyl]sulfonyl]-3-pyrrolidinyl]-4-[(diaminomethylene)amino]-benzamide]"
2,900,"NC(N)=Nc1ccc(C(=O)N(Cc2ccc(O)cc2)C2CCN(S(=O)(=O)/C=C/c3ccc(Cl)cc3)C2)cc1 (stereo not shown) [Compound 2, N-[1-[[(E)-2-(4-chlorophenyl)ethenyl]sulfonyl]-3-pyrrolidinyl]-4-[(diaminomethylene)amino]-N-[(4-hydroxyphenyl)methyl]-benzamide]"
3,4000,N-[[4-[(aminoiminomethyl)amino]phenyl]methyl]-N-[1-[[(E)-2-(4-chlorophenyl)ethenyl]sulfonyl]-3-pyrrolidinyl]-4-[(diaminomethylene)amino]-benzamide [Compound 24]
4,700,"COC(=O)c1cc(CN(C(=O)c2ccc(N=C(N)N)cc2)C2CCN(S(=O)(=O)/C=C/c3ccc(Cl)cc3)C2)ccc1O (stereo not shown) [Compound 25, 5-[[[1-[[(E)-2-(4-chlorophenyl)ethenyl]sulfonyl]-3-pyrrolidinyl][4-[(diaminomethylene)amino]benzoyl]amino]methyl]-2-hydroxy-benzoic acid methyl ester]"
